Source: patent US11787780B2 (CORCEPT THERAPEUTICS INCORPORATED, priority 2020, dated 2023)

Experiments:
[1] = target: glucocorticoid receptor (GR) recombinant ligand binding domain (LBD) (Homo sapiens (Human), UniProt P04150); experiment: GR binding fluorescence polarisation (FP) assay; conditions: displacement of fluorescently tagged ligand
Experimental: Binding of test compounds to the glucocorticoid receptor (GR) is determined using a fluorescence polarisation (FP) assay utilising a recombinant ligand binding domain (LBD) of GR. The test compounds are assessed by their ability to displace a fluorescently tagged ligand and detection of the resulting decrease in fluorescence polarisation.

[2] = tested on: induction of TAT by dexamethasone in HepG2 cells; experiment: Hep G2 TAT assay (inhibition of dexamethasone-induced TAT); assay type: cell-based, human; conditions: challenge of 100 nM dexamethasone, IC50 converted to Ki by Cheng and Prusoff equation

glucocorticoid receptor (GR) recombinant ligand binding domain (LBD), sequence (P04150 524-758): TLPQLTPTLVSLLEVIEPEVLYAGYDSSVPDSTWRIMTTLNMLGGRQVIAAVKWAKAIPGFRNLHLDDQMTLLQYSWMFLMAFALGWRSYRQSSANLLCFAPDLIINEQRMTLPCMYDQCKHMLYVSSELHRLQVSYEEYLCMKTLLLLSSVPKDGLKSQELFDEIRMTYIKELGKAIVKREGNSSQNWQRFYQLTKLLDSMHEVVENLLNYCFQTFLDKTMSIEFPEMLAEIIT

IC50 [1] | Compound | Ki [2]
4.8 nM | Cc1cc2c(cnn2-c2ccc(=O)n(C)c2)cc1C1(Cc2ccccc2)CCN(S(=O)(=O)c2ccccc2F)C1 (stereo not drawn) [Example 301, 5-(5-(3-benzyl-1-((2-fluorophenyl)sulfonyl)pyrrolidin-3-yl)-6-methyl-1H-indazol-1-yl)-1-methylpyridin-2(1H)-one] | 25 nM
12 nM | Cc1cc2c(cnn2-c2ccc(=O)n(C)c2)cc1C1(Cc2ccccc2)CCN(S(=O)(=O)c2cccc(F)c2)C1 (stereo not drawn) [Example 302, 5-(5-(3-benzyl-1-((3-fluorophenyl)sulfonyl)pyrrolidin-3-yl)-6-methyl-1H-indazol-1-yl)-1-methylpyridin-2(1H)-one] | 27 nM
4.4 nM | Cc1cc2c(cnn2-c2ccc(=O)n(C)c2)cc1C1(Cc2ccccc2)CCN(S(=O)(=O)c2cccc(C(F)(F)F)n2)C1 (stereo not drawn) [Example 303, 5-(5-(3-benzyl-1-((6-(trifluoromethyl)pyridin-2-yl)sulfonyl)pyrrolidin-3-yl)-6-methyl-1H-indazol-1-yl)-1-methylpyridin-2(1H)-one] | 24 nM
7.5 nM | COc1ccc(S(=O)(=O)N2CCC(Cc3ccccc3)(c3cc4cnn(-c5ccc(=O)n(C)c5)c4cc3C)C2)cc1 (stereo not drawn) [Example 304, 5-(5-(3-benzyl-1-((4-methoxyphenyl)sulfonyl)pyrrolidin-3-yl)-6-methyl-1H-indazol-1-yl)-1-methylpyridin-2(1H)-one] | 48 nM
3 nM | Cc1cc2c(cnn2-c2ccc(=O)n(C)c2)cc1C1(Cc2ccccc2)CCN(S(=O)(=O)c2ccc(Cl)cc2)C1 (stereo not drawn) [Example 305, 5-(5-(3-benzyl-1-((4-chlorophenyl)sulfonyl)pyrrolidin-3-yl)-6-methyl-1H-indazol-1-yl)-1-methylpyridin-2(1H)-one] | 32 nM
11 nM | COc1ccc(S(=O)(=O)N2CCC(Cc3ccccc3)(c3cc4cnn(-c5ccc(=O)n(C)c5)c4cc3C)C2)cn1 (stereo not drawn) [Example 306, 5-(5-(3-benzyl-1-((6-methoxypyridin-3-yl)sulfonyl)pyrrolidin-3-yl)-6-methyl-1H-indazol-1-yl)-1-methylpyridin-2(1H)-one] | 56 nM
8.8 nM | Cc1ccc(S(=O)(=O)N2CCC(Cc3ccccc3)(c3cc4cnn(-c5ccc(=O)n(C)c5)c4cc3C)C2)cc1 (stereo not drawn) [Example 307, 5-(5-(3-benzyl-1-tosylpyrrolidin-3-yl)-6-methyl-1H-indazol-1-yl)-1-methylpyridin-2(1H)-one] | 89 nM
14 nM | Cc1cc2c(cnn2-c2ccc(=O)n(C)c2)cc1C1(Cc2ccccc2)CCN(S(=O)(=O)c2ccc(C#N)cc2)C1 (stereo not drawn) [Example 308, 4-((3-benzyl-3-(6-methyl-1-(1-methyl-6-oxo-1,6-dihydropyridin-3-yl)-1H-indazol-5-yl)pyrrolidin-1-yl)sulfonyl)benzonitrile] | 62 nM
11 nM | Cc1cncc(S(=O)(=O)N2CCC(Cc3ccccc3)(c3cc4cnn(-c5ccc(=O)n(C)c5)c4cc3C)C2)c1 (stereo not drawn) [Example 309, 5-(5-(3-benzyl-1-((5-methylpyridin-3-yl)sulfonyl)pyrrolidin-3-yl)-6-methyl-1H-indazol-1-yl)-1-methylpyridin-2(1H)-one] | 66 nM
11 nM | COc1cccc(S(=O)(=O)N2CCC(Cc3ccccc3)(c3cc4cnn(-c5ccc(=O)n(C)c5)c4cc3C)C2)c1 (stereo not drawn) [Example 310, 5-(5-(3-benzyl-1-((3-methoxyphenyl)sulfonyl)pyrrolidin-3-yl)-6-methyl-1H-indazol-1-yl)-1-methylpyridin-2(1H)-one] | 66 nM
3 nM | Cc1cc2c(cnn2-c2ccc(=O)n(C)c2)cc1C1(Cc2ccccc2)CCN(S(=O)(=O)c2cnccc2Cl)C1 (stereo not drawn) [Example 311, 5-(5-(3-benzyl-1-((4-chloropyridin-3-yl)sulfonyl)pyrrolidin-3-yl)-6-methyl-1H-indazol-1-yl)-1-methylpyridin-2(1H)-one] | 29 nM
12 nM | Cc1cc2c(cnn2-c2ccc(=O)n(C)c2)cc1C1(Cc2ccccc2)CCN(S(=O)(=O)c2cncc(Cl)c2)C1 (stereo not drawn) [Example 312, 5-(5-(3-benzyl-1-((5-chloropyridin-3-yl)sulfonyl)pyrrolidin-3-yl)-6-methyl-1H-indazol-1-yl)-1-methylpyridin-2(1H)-one] | 41 nM
8.3 nM | Cc1cc2c(cnn2-c2ccc(=O)n(C)c2)cc1C1(Cc2ccccc2)CCN(S(=O)(=O)c2ccc(Cl)cc2C#N)C1 (stereo not drawn) [Example 313, 2-((3-benzyl-3-(6-methyl-1-(1-methyl-6-oxo-1,6-dihydropyridin-3-yl)-1H-indazol-5-yl)pyrrolidin-1-yl)sulfonyl)-5-chlorobenzonitrile] | 50 nM
11 nM | Cc1cc2c(cnn2-c2ccc(=O)n(C)c2)cc1C1(Cc2ccccc2)CCN(S(=O)(=O)c2ccc(F)cc2F)C1 (stereo not drawn) [Example 314, 5-(5-(3-benzyl-1-((2,4-difluorophenyl)sulfonyl)pyrrolidin-3-yl)-6-methyl-1H-indazol-1-yl)-1-methylpyridin-2(1H)-one] | 56 nM
6.7 nM | Cc1cc2c(cnn2-c2ccc(=O)n(C)c2)cc1C1(Cc2ccccc2)CCN(S(=O)(=O)c2c(F)cccc2F)C1 (stereo not drawn) [Example 315, 5-(5-(3-benzyl-1-((2,6-difluorophenyl)sulfonyl)pyrrolidin-3-yl)-6-methyl-1H-indazol-1-yl)-1-methylpyridin-2(1H)-one] | 29 nM
12 nM | Cc1cc2c(cnn2-c2ccc(=O)n(C)c2)cc1C1(Cc2ccccc2)CCN(S(=O)(=O)c2cc(F)ccc2F)C1 (stereo not drawn) [Example 316, 5-(5-(3-benzyl-1-((2,5-difluorophenyl)sulfonyl)pyrrolidin-3-yl)-6-methyl-1H-indazol-1-yl)-1-methylpyridin-2(1H)-one] | 32 nM
8.9 nM | Cc1cc2c(cnn2-c2ccc(=O)n(C)c2)cc1C1(Cc2ccccc2)CCN(S(=O)(=O)c2cccc(F)c2F)C1 (stereo not drawn) [Example 317, 5-(5-(3-benzyl-1-((2,3-difluorophenyl)sulfonyl)pyrrolidin-3-yl)-6-methyl-1H-indazol-1-yl)-1-methylpyridin-2(1H)-one] | 23 nM
5.1 nM | CCCn1cc(S(=O)(=O)N2CCC(Cc3ccccc3)(c3cc4cnn(-c5ccc(=O)n(C)c5)c4cc3C)C2)cn1 (stereo not drawn) [Example 318, 5-(5-(3-benzyl-1-((1-propyl-1H-pyrazol-4-yl)sulfonyl)pyrrolidin-3-yl)-6-methyl-1H-indazol-1-yl)-1-methylpyridin-2(1H)-one] | 48 nM
14 nM | COc1cc2c(cnn2-c2ccc(=O)n(C)c2)cc1C1(Cc2ccccc2)CCN(S(=O)(=O)C2CC2)C1 (stereo not drawn) [Example 321] | 270 nM
24 nM | Cc1ncc(S(=O)(=O)N2CCC(Cc3ccccc3)(c3cc4cnn(-c5ccc(=O)n(C)c5)c4cc3C)C2)cn1 (stereo not drawn) [Example 322, 5-(5-(3-benzyl-1-((2-methylpyrimidin-5-yl)sulfonyl)pyrrolidin-3-yl)-6-methyl-1H-indazol-1-yl)-1-methylpyridin-2(1H)-one] | 77 nM
12 nM | Cc1cc2c(cnn2-c2ccc(=O)n(C)c2)cc1C1(Cc2ccc(F)cc2)CCN(S(=O)(=O)c2cnn(C)c2)C1 (stereo not drawn) [Example 323, 5-(5-(3-(4-fluorobenzyl)-1-((1-methyl-1H-pyrazol-4-yl)sulfonyl)pyrrolidin-3-yl)-6-methyl-1H-indazol-1-yl)-1-methylpyridin-2(1H)-one] | 97 nM
